From ChEMBL document CHEMBL1157004 (Bioorg Med Chem, 2009)
Activity calls are given as the source filed them. The calls are words filed in the database; no cut-off is given here.

Columns and labels:
[1] = system: Rattus norvegicus; assay: Antiamnesic activity against scopolamine-induced dementia in Wistar rat assessed as decrease in occurrence of mistakes at 0.5 mg/kg, po; type: functional, organism-based; parameters: dose 0.5 mg/kg
[2] = system: Rattus norvegicus; assay: Antiamnesic activity against scopolamine-induced dementia in Wistar rat assessed as basal latency period to reach shock free zone at 0.5 mg/kg, po; type: functional
[3] = system: Rattus norvegicus; assay: Antiamnesic activity against scopolamine-induced dementia in Wistar rat assessed as latency period to improve memory at 0.5 mg/kg, po; type: functional
[4] = system: Rattus norvegicus; assay: Antiamnesic activity against scopolamine-induced memory loss and learning impairment in Wistar rat assessed as transfer latency period to reach from open arm to closed arm ends measured on day 1 at 0.5 mg/kg, po by elevated plus maze test; type: functional
[5] = system: Rattus norvegicus; assay: Antiamnesic activity against scopolamine-induced memory loss and learning impairment in Wistar rat assessed as transfer latency period to reach from open arm to closed arm ends measured on day 2 at 0.5 mg/kg, po by elevated plus maze test; type: functional
[6] = system: Rattus norvegicus; assay: Antiamnesic activity against scopolamine-induced memory loss and learning impairment in Wistar rat at 0.5 mg/kg, po by Y maze test; type: functional, organism-based; parameters: dose 0.5 mg/kg
[7] = system: Rattus norvegicus; assay: Cholinergic toxicity in po dosed Wistar rat assessed as occurrence of salivation after 1 week; type: organism-based; conditions: in vivo, 168 h
[8] = system: Rattus norvegicus; assay: Cholinergic toxicity in po dosed Wistar rat assessed as occurrence of defecation after 1 week; type: organism-based; conditions: in vivo, 168 h
[9] = system: Rattus norvegicus; assay: Toxicity in po dosed Wistar rat assessed as mortality within 1 week; type: organism-based; conditions: in vivo, 168 h
[10] = target: T1, Muscarinic acetylcholine receptor M1 (Rattus norvegicus, UniProt P08482); assay: Displacement of [3H]QNB from muscarinic M1 receptor in Wistar rat brain cortex after 2 hrs by liquid scintillation counting
T1 sequence (P08482 whole entry): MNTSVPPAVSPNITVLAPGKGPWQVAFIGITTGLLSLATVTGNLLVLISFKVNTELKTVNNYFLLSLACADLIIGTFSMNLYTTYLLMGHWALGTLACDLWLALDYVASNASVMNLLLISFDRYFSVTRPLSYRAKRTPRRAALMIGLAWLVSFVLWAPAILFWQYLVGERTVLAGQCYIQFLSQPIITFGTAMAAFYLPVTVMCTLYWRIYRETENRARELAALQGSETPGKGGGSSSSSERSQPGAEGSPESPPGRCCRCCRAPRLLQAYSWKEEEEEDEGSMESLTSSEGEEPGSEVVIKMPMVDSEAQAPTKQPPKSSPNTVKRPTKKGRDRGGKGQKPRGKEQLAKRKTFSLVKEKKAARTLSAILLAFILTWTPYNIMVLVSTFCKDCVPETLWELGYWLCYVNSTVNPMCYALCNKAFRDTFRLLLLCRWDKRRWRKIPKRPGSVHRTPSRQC

[11] = target: T2, Muscarinic acetylcholine receptor M1 (Rattus norvegicus) (UniProt P08482); assay: Agonist activity at muscarinic M1 receptor in Wistar rat cerebral cortex assessed as [3H]myoinositol (1,4,5)-triphosphate level per gram of protein at 100 uM after 1 hr by liquid scintillation counting; type: functional, tissue-based
T2 sequence (whole entry): T1 sequence (P08482 whole entry)

Row | SMILES | Activity [1] | Time [2] [s] | Time [3] [s] | Time [4] [s] | Time [5] [s] | Activity [6] | Activity [7] | Activity [8] | Activity [9] | IC50 [10] [µM] | Ki [10] [µM] | Activity [11] [pmol]
1 | CN1CCC=C(C2CN(C(=O)c3ccc([N+](=O)[O-])cc3)CCO2)C1 (stereo unspecified) | Active | 10 | 5 | 64 | 52 | Active | Non-toxic | Non-toxic | Non-toxic |  |  | 
2 | Cc1ccc(C(=O)N2CCOC(C3=CCCN(C)C3)C2)cc1 (stereo unspecified) | Active | 8 | 4 | 33 | 13 | Active | Non-toxic | Non-toxic | Non-toxic |  |  | 
3 | CN1CCC=C(C2CN(C(=O)c3cccc([N+](=O)[O-])c3)CCO2)C1 (stereo unspecified) | Active | 10 | 4 | 64 | 47 | Active | Non-toxic | Non-toxic | Non-toxic |  |  | 
4 | CN1CCC=C(C2CN(C(=O)c3ccccc3)CCO2)C1 (stereo unspecified) | Active | 10 | 6 | 53 | 35 | Active | Non-toxic | Non-toxic | Non-toxic |  |  | 
5 | CN1CCC=C(C2CN(C(=O)c3ccc(Cl)cc3)CCO2)C1 (stereo unspecified) | Active | 7 | 3 | 37 | 17 | Active | Non-toxic | Non-toxic | Non-toxic |  |  | 
6 | CN1CCC=C(C2CN(C(=O)c3ccccc3[N+](=O)[O-])CCO2)C1 (stereo unspecified) | Active | 10 | 5 | 66 | 52 | Active | Non-toxic | Non-toxic | Non-toxic | 618 | 126 | 0.65
7 | CN1CCC=C(C2CN(C(=O)c3cc(Cl)ccc3Cl)CCO2)C1 (stereo unspecified) | Active | 11 | 9 | 66 | 53 | Active | Non-toxic | Non-toxic | Non-toxic |  |  | 
8 | COC(=O)C1=CCCN(C)C1 [ARECOLINE] |  | 10 | 5 | 52 | 36 | Active |  |  | Non-toxic |  |  | 
9 | CN1CCC=C(C2CN(C(=O)c3ccc(C(C)(C)C)cc3)CCO2)C1 (stereo unspecified) | Active | 11 | 6 | 65 | 53 | Active | Non-toxic | Non-toxic | Non-toxic |  |  | 
